In the METLIN SMRT retention time set (Domingo-Almenara et al. 2019):

experiment: gradient 5% acetonitrile 3 min, to 50% in 2 min, to 85% in 15 min, held 3 min, 100 µL/min; conditions: column: Zorbax Extend-C18 2.1 x 50 mm; eluents: water / acetonitrile, 0.1% formic acid
In short: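 Pure standards were analyzed in mixtures of ~100 molecules using HPLC coupled to a quadrupole time-of-flight mass spectrometer, in both positive and negative ionization mode. Separation used a Zorbax Extend-C18 column (2.1 × 50 mm, 1.8 μm) at 100 μL/min, with water and acetonitrile each containing 0.1% formic acid. Dead and dwell volumes were 40 μL and 900 μL, and data were collected over 3 months. Retention time was read from computationally picked adduct peaks, each inspected manually.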

| RP-LC retention time [s] | SMILES |
| --- | --- |
| 987 | CCn1cc(-c2nc(C)c(C(=O)N3CCc4ccccc4C3)s2)c2cccnc21 |
| 820 | Cc1nc(CC(=O)NC(C)c2ccccc2)sc1C(=O)NCc1ccccc1 (stereo not given) |
| 936 | CCCn1cc(S(=O)(=O)NCc2cccc(F)c2)c2cccnc21 |
| 1100 | Cc1cccc(C)c1NC(=O)CSC1=Nc2ccccc2N=C(c2ccccc2)C1 |
| 646 | COc1ccc(CNC(=O)Cc2nnc(-c3ccc4ncccc4c3)o2)cc1OC |
| 719 | CN(Cc1nc2ccccc2n1Cc1ccccc1F)C(=O)c1ccco1 |
| 697 | CC(=O)N1CCc2cc(N3CC(C(=O)N(C)Cc4ccccc4)CC3=O)ccc21 (stereo not given) |
| 809 | COc1cc(NC(=O)Cn2cc(-c3nnc(C)o3)c3ccccc32)cc(OC)c1 |
| 854 | CCc1nc(OCC(=O)Nc2cc(F)ccc2F)c2ccccc2n1 |
| 588 | NC(=O)C1CCN(CC(=O)Nc2nc(-c3ccccc3)cs2)CC1 |
| 957 | CCc1ccccc1NC(=O)N1CCCC1c1nc(-c2cccc(OC)c2)no1 (stereo not given) |
| 866 | CC(C)CCNC(=O)Cn1c(=O)c(S(=O)(=O)c2ccccc2)cc2ccccc21 |
| 679 | Cc1cccc2nnc(N3CCC(C(=O)NCc4ccccc4Cl)CC3)n12 |
| 788 | CCc1nc(OCC(=O)Nc2ccc(OC)cc2OC)c2ccccc2n1 |
| 1060 | CCc1ccccc1NC(=O)CSc1nccc(N2CCN(c3cc(C)ccc3C)CC2)n1 |
| 902 | O=C(Nc1cccc(F)c1)C(=O)c1cn(CC(=O)N2CCOCC2)c2ccccc12 |
| 827 | COc1cccc(CNC(=O)c2nnc(-c3ccc(S(=O)(=O)N(C)C)cc3)o2)c1 |
| 924 | CCn1cc(-c2nc(CC(=O)NCc3ccccc3Cl)cs2)c2cccnc21 |
| 819 | CCCC(=O)Nc1ccc(OCc2cc(C(=O)NC(C)CC)no2)cc1 (stereo not given) |
| 675 | CCOc1ccc(NC(=O)Cn2cnc3nc(N4CCCC(C(=O)NC5CC5)C4)sc3c2=O)cc1 (stereo not given) |
| 674 | COc1cccc(CN2N=C(C(=O)N3CCC(C)CC3)S(=O)(=O)c3ccc(C)cc32)c1 |
| 862 | O=C(CN1C(=O)COc2ccc(Cl)cc21)NCC(=O)N1CCCc2ccccc21 |
| 916 | Cc1cc(-c2nnc(-c3ccc(F)cc3)o2)c(C)n1CC(=O)NCc1ccc2c(c1)OCO2 |
| 887 | CCCCS(=O)(=O)c1cc2c(cc1NC(=O)c1ccccc1)n(C)c(=O)n2C |
| 980 | CCCCC(=O)NC1(C(F)(F)F)C(=O)N(CCc2ccccc2)C(C)=C1C(C)=O (stereo not given) |

Continued, compound first:

| SMILES | RP-LC retention time [s] |
| --- | --- |
| CC(C)Cc1csc(-c2csc(S(=O)(=O)NCc3cc(F)cc(F)c3)c2)n1 | 1200 |
| CCc1ccc(Nc2cc(C(=O)N3CCCCC3)nc3cc(OC)c(OC)cc23)cc1 | 766 |
| O=C(CSc1ccc(N2CCCC2)nn1)Nc1ccc(Cl)cc1 | 647 |
| Cc1nc(C2(C)CCN(S(=O)(=O)c3c(C)c(C)cc(C)c3C)CC2)no1 | 1140 |
| CCN1C(=O)c2cc(S(=O)(=O)Nc3ccc(Cl)cc3)ccc2Oc2cccnc21 | 1050 |
| O=C(Cc1ccccc1Br)N1CCN(c2cc(-c3ccc(F)cc3)[nH]n2)CC1 | 867 |
| Cc1ccccc1N1CCN(C(=O)Cn2c(=O)c3nnc(C)n3c3ncccc32)CC1 | 793 |
| Cc1cnc(C2CC2)n1C1CCN(C(=O)c2cccn2C)C1 (stereo not given) | 583 |
| O=C(NC1CCCCC1)C1CCN(S(=O)(=O)c2cc(C(=O)N3CCOCC3)cs2)CC1 | 710 |
| Cc1ccc(CNC(=O)c2ccc(NC(=O)C3CCC3)cc2N2CCOCC2)o1 | 818 |
| Cc1nnc2cc(N3CCN(C(=O)Nc4ccc5c(c4)OCCO5)CC3)cnn12 | 595 |
| CN1CCN(CCCNC(=O)C2CCN(S(=O)(=O)c3ccc4c(c3)sc(=O)n4C)CC2)CC1 | 580 |
| O=C(Nc1cnc(-c2ccc(Cl)cc2)nc1)C1CCCO1 (stereo not given) | 910 |
| Cc1cc(=O)oc2c3c(cc(OCC(=O)N[C@H](CC(C)C)C(=O)O)c12)OC(C)(C)CC3 | 892 |
| CCC(CN1CCOCC1)NC(=O)c1c2c(cn(-c3ccccc3)c1=O)C(=O)CC(C)(C)C2 (stereo not given) | 661 |
| CCc1nnc(C2CN(C)CC23CCN(S(=O)(=O)c2cc(F)ccc2OC)CC3)o1 (stereo not given) | 612 |
| Cn1nccc1C(=O)Nc1ccc(Br)cc1 | 791 |
| O=C1CN(S(=O)(=O)c2ccccc2C(F)(F)F)CC2(CCCCC2)N1C1CCCC1 | 1230 |
| CC(C)CN1CCN(S(=O)(=O)c2ccc(-c3nnc(C4CCC4)o3)o2)CC1 | 610 |
| O=C(O)c1cccnc1SC1CC(=O)N(c2ccc(F)c(Cl)c2)C1=O (stereo not given) | 741 |

| SMILES | RP-LC retention time [s] |
| --- | --- |
| COCCNC(=O)C1CCCN(S(=O)(=O)c2cc(OC)ccc2OC)C1 (stereo not given) | 687 |
| O=C1COc2cc(S(=O)(=O)N3CCCC3C(=O)N3CCc4ccccc43)c(Cl)cc2N1 (stereo not given) | 795 |
| COc1ccc(-c2nnc(-c3cccc([N+](=O)[O-])c3)o2)cc1 | 898 |
| CCOc1ccc(NS(=O)(=O)c2ccc3c(c2)C(=O)N(C)c2ncccc2O3)cc1 | 907 |
| CO[C@H]1C(=O)N(C(C)C)[C@H]1C1CCN(C(=O)CCn2cc(C)cn2)CC1 | 654 |
| O=C1CCCCC(C(=O)Nc2cccc(Cl)c2)N1 (stereo not given) | 712 |
| Cn1ncc2c3ccccc3n(CCCC(=O)NCCCN3CCOCC3)c2c1=O | 593 |
| COc1ccc2[nH]cc(CCNC(=O)c3cc4n(n3)CCCN(Cc3ccc(Cl)cc3)C4=O)c2c1 | 693 |
| Cc1nnc2c(NC(=O)c3ccc(Cl)s3)cccn12 | 729 |
| Cc1cc(C#N)cc(C)c1Oc1nc(Nc2ccc(C#N)cc2)nc(N)c1Br | 1100 |
| O=C(Cn1nc2c(N3CCCCCC3)nccn2c1=O)Nc1ccccc1C(F)(F)F | 727 |
| Cc1ccccc1C(=O)N1C[C@@H]2C[C@H]1C[C@@H]2NS(=O)(=O)c1cccs1 | 776 |
| CCOC(=O)c1c(C)[nH]c(NC(=O)N2CCN(c3ccc(OC)cc3)CC2)c1C | 703 |
| O=C(O)c1cc(-c2ccccc2F)n[nH]1 | 630 |
| Cc1ccc(NC(=O)C2CC(=O)N(CCc3c[nH]c4ccc(F)cc34)C2)c(C)c1 (stereo not given) | 847 |
| CCCn1c(C)cnc1CC1CCN(S(=O)(=O)c2ccc3c(c2)OCCO3)CC1 | 560 |
| O=C1NC2(CCN(C(=O)c3ccc(F)cc3)CC2)N=C1c1cccc(F)c1 | 635 |
| Cc1nc(N2CCOCC2)c2c(C(=O)N3CCN(c4cccc(Cl)c4)CC3)c(C)oc2n1 | 917 |
| CC1CCN(C(=O)CSCc2nc3cccnc3n2C2CCCCC2)CC1 | 960 |
| CCc1cc(=O)n(CC(=O)Nc2ccc(F)c(F)c2)c(N2CCOCC2)n1 | 756 |
